This passage reports TGI results from PubChem BioAssay (NCI).

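In this assay, cells in 96-well plates receive the compound at five concentrations for 48 hours. Endpoints are linearly interpolated between the surrounding concentrations. TGI: concentration producing complete growth inhibition.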 Some results are limits rather than exact numbers.

Assay in all cases: NCI-60 cell line screen, 48 h
The subject of test [1] is SK-MEL-28 melanoma.
Test [2] has as its system SF-295 CNS.
Test [3] deals with EKVX NSCLC.
Test [4] has as its system HOP-92 NSCLC.
Test [5] relates to KM12 colon.
The test system of test [6] is LOX IMVI melanoma.
Test [7] deals with RXF 393 renal.
The test system of test [8] is TK-10 renal.
In test [9] the test system is OVCAR-3 ovarian.
The subject of test [10] is SK-MEL-5 melanoma.
For test [11], the system named is SN12C renal.
Test [12] relates to SW-620 colon.
Test [13] concerns SK-MEL-2 melanoma.
In test [14] the test system is A498 renal.
Test [15] deals with HL-60(TB) leukemia.
The subject of test [16] is SF-268 CNS.
In test [17] the test system is RPMI-8226 leukemia.
The test system of test [18] is MDA-N.

With `O=C1NCC2=C1CCC1c3ccccc3CCN21` (configuration not stated), the TGI in [1], in [2], in test [3], in test [4], in test [5] and in test [6] was more than 100 µM in each case. The TGI in [7], in test [8], in test [9], in [10], in test [11] and in test [12] was more than 100 µM in each case. Besides, the TGI in test [13], in [14], in test [15] and in test [16] was more than 100 µM each time.
For the compound `CCCNc1c(Cl)cc(Cl)c2[nH]c3ccccc3c(=O)c12`, the TGI in test [1] was more than 100 µM; in [2] it was more than 100 µM; in test [3] it was more than 100 µM; in test [17] it was more than 100 µM; in test [4] it was 35 µM; in [5] it was more than 100 µM. Further, the TGI in test [6], in [18], in test [8], in test [9], in test [10] and in [11] was more than 100 µM throughout. For the same compound, the TGI was more than 100 µM in [12], more than 100 µM in [13], more than 100 µM in [14] and 47.6 µM in test [15].
`Cc1[nH]c2ncn(N)c(=N)c2c1Cc1ccccc1`: the TGI is more than 100 µM in [1]; more than 100 µM in [2]; more than 100 µM in test [3]; more than 100 µM in test [17]; 87.8 µM in [4]; more than 100 µM in [5]. The TGI in [6], in [18], in test [8], in test [9], in test [10] and in test [11] was more than 100 µM throughout. For the same compound, the TGI in test [12], in [13], in [14] and in [15] was more than 100 µM throughout.
For `c1ccc2c(-c3ccnc(-c4c[nH]c5ccccc45)n3)c[nH]c2c1`, the TGI in test [1] was more than 100 µM; in [2], more than 100 µM; in [3] it was more than 100 µM; in test [17], 4.61 µM; in [4], 5.83 µM; in test [5], 23.9 µM. Besides, the TGI was 10.1 µM in [6]; 7.33 µM in test [18]; more than 100 µM in test [8]; more than 100 µM in [9]; 15 µM in [10]; 19.7 µM in test [11]. Moreover, the TGI is 25.9 µM in test [12]; more than 100 µM in [13]; 5.33 µM in test [14]; 30.8 µM in [15]; more than 100 µM in [16].
Take `O=c1[nH]nc(Cc2ccc(Cl)cc2)n1Nc1ccccc1`: the TGI in test [1], in test [2], in [3], in [4], in test [5] and in test [6] was more than 100 µM in each case. In addition, the TGI in test [18], in [8], in test [9], in test [10], in test [11] and in test [12] was more than 100 µM each time. The TGI in test [13] and in [14] was more than 100 µM in each case.
In the case of `COC(=O)C(NC(=O)C12CCC(C)(C(=O)O1)C2(C)C)c1cc(C(C)(C)C)c(O)c(C(C)(C)C)c1` (configuration not stated), the TGI in [1], in [2], in test [3], in test [17], in [4] and in [5] was more than 100 µM throughout. Besides, the TGI in test [6], in test [7], in test [8], in [9], in test [10] and in test [12] was more than 100 µM throughout. In addition, the TGI in test [13] is more than 100 µM; in test [14], more than 100 µM; in test [15], 32.1 µM; in test [16], more than 100 µM.
As to `CC1(C)CC(C2CC(C)(C)CC(C)(C)[C@H]2O)[C@@H](O)C(C)(C)C1` (some centres not stated), the TGI in [1], in test [2], in test [3], in [17], in [5] and in test [6] was more than 100 µM in each case. Also, the TGI in test [8], in [9], in [10], in test [11], in test [12] and in [15] was more than 100 µM throughout. The compound also showed a TGI in test [16] of more than 100 µM.
For the compound `CN(C)c1ccc(C=Nc2ccc(-c3nc4ccccc4o3)cc2)cc1`, the TGI is more than 100 µM in [1]; 87.1 µM in test [3]; more than 100 µM in test [4]; more than 100 µM in [5]; more than 100 µM in [6]; more than 100 µM in test [8]. The TGI in [9] is 51.4 µM; in test [10], 29.8 µM; in [11], more than 100 µM; in test [12] it was more than 100 µM; in test [13] it was 83.1 µM; in [14], more than 100 µM. The TGI is 69.1 µM in [15] and more than 100 µM in test [16].
For `COc1ccc(-n2c(-c3ccccc3)cc(-c3cccs3)c2-c2cccs2)cc1`, the TGI in test [1], in test [2], in [3], in [17], in [4] and in test [5] was more than 100 µM throughout. Also, the TGI in [6], in test [7], in [8], in test [9], in [10] and in [11] was more than 100 µM throughout. Besides, the TGI in test [12], in test [14] and in [16] was more than 100 µM in each case.
